Laboratory results as given in the supplement of paper PMC10307832.

Columns and labels:
Experiment in all cases: relative viability (nuclei count vs DMSO), 5 days (fraction); higher = more cells survive
IMD-0354 + Decitabine = compound: O=C(Nc1cc(C(F)(F)F)cc(C(F)(F)F)c1)c1cc(Cl)ccc1O [IMD-0354] + Nc1ncn([C@H]2C[C@H](O)[C@@H](CO)O2)c(=O)n1 [Decitabine] (partner 2 µM)
Summary of the method: (§1)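 Lung cancer cell lines, seeded in 1536-well plates, were treated the following day by pin tool with a single drug or with five library-drug doses (not always all listed) in √10 steps on top of a fixed anchor-drug dose. Cells were fixed and nuclei stained in one step after 5 days, and nuclei were counted. Relative viability is the nuclei count for treated wells divided by that for vehicle wells, reported as medians of duplicate plates.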

CX-5461 + Crizotinib = compound: Cc1cnc(CNC(=O)c2c(=O)c3ccc(N4CCCN(C)CC4)nc3n3c2sc2ccccc23)cn1 [CX-5461] + C[C@@H](Oc1cc(-c2cnn(C3CCNCC3)c2)cnc1N)c1c(Cl)ccc(F)c1Cl [Crizotinib] (partner 1 µM)
Summary of the method: as §1

IMD-0354 + Tozasertib = compound: O=C(Nc1cc(C(F)(F)F)cc(C(F)(F)F)c1)c1cc(Cl)ccc1O [IMD-0354] + Cc1cc(Nc2cc(N3CCN(C)CC3)nc(Sc3ccc(NC(=O)C4CC4)cc3)n2)n[nH]1 [Tozasertib] (partner 0.1 µM)
Summary of the method: as §1

IMD-0354 + Trametinib = compound: O=C(Nc1cc(C(F)(F)F)cc(C(F)(F)F)c1)c1cc(Cl)ccc1O [IMD-0354] + CC(=O)Nc1cccc(-n2c(=O)n(C3CC3)c(=O)c3c(Nc4ccc(I)cc4F)n(C)c(=O)c(C)c32)c1 [Trametinib] (partner 0.02 µM)
Summary of the method: as §1

Cell Line: UMC-11
- relative viability (IMD-0354 + Decitabine; first compound 0.04 µM): 0.64
- relative viability (IMD-0354 + Decitabine; first compound 0.1265 µM): 0.646
- relative viability (IMD-0354 + Decitabine; first compound 0.4 µM): 0.522
- relative viability (IMD-0354 + Decitabine; first compound 1.265 µM): 0.174
- relative viability (IMD-0354 + Decitabine; first compound 4 µM): 0.176
- relative viability (CX-5461 + Crizotinib; first compound 0.01 µM): 0.63
- relative viability (CX-5461 + Crizotinib; first compound 0.03162 µM): 0.655
- relative viability (CX-5461 + Crizotinib; first compound 0.1 µM): 0.694
- relative viability (CX-5461 + Crizotinib; first compound 0.3162 µM): 0.607
- relative viability (CX-5461 + Crizotinib; first compound 1 µM): 0.153
- relative viability (IMD-0354 + Tozasertib; first compound 0.04 µM): 0.202
- relative viability (IMD-0354 + Tozasertib; first compound 0.1265 µM): 0.219
- relative viability (IMD-0354 + Tozasertib; first compound 0.4 µM): 0.187
- relative viability (IMD-0354 + Tozasertib; first compound 1.265 µM): 0.182
- relative viability (IMD-0354 + Tozasertib; first compound 4 µM): 0.203
- relative viability (IMD-0354 + Trametinib; first compound 0.04 µM): 0.745
- relative viability (IMD-0354 + Trametinib; first compound 0.1265 µM): 0.808
- relative viability (IMD-0354 + Trametinib; first compound 0.4 µM): 0.337
- relative viability (IMD-0354 + Trametinib; first compound 1.265 µM): 0.194
- relative viability (IMD-0354 + Trametinib; first compound 4 µM): 0.246
